# Literature values as cited in US20010008638A1, “N[…] LEAST ONE […] AT LEAST ONE ANTI-ESTROGEN COMPOUND IN A TIME-RELEASE DOSAGE FORM” (priority 1999, published 2001).
# Conditions: fold more potent than testosterone
smiles,measurement,value
"C[C@]12CCC(=O)C[C@@H]1CC[C@@H]1[C@@H]2CC[C@]2(C)[C@@H](O)CC[C@@H]12 [DHT, dihydrotestosterone]",potency relative to testosterone,~10 times
